Measured values: patent publication US20120095211A1, “SUBSTITUTED PROLINE INHIBITORS OF HEPATITIS C VIRUS REPLICATION” (InterMune, Inc., priority 2010, published 2012)
Read-outs that look alike come from different tables or passages of the source.

Assays:
[1] = rcm bond
[2] = target: NS3/NS4 complexes (Hepatitis C virus genotype 1a, UniProt P27958); assay: NS3/NS4 inhibition assay (inhibitory concentrations of test compounds); format: biochemical; conditions: NS3-NS4 activity; 23° C., pH 7.5, 25 μM NS4A peptide
Source text: (§1) NS3-NS4 inhibition activity can be determined using known assay methods. For example, NS3/NS4 complexes may be formed and inhibitory concentrations of test compounds determined as described in U.S. Patent Application Publication Number 2007/0054842 paragraph numbers 1497-1509, which is incorporated herein by reference in its entirety. Similarly, hepatitis C replicon EC50 may be determined using known assay methods such as described in U.S. Patent Application Publication Number 2007/0054842 paragraph numbers 1510-1515, which is incorporated herein by reference in its entirety. Assays may be conducted at ambient temperature (23° C.) in assay buffer containing 50 mM Tris-HCl, pH 7.5, 15% glycerol, 0.6 mM Lauryldimethylamine Oxide (LDAO), 25 μM NS4A peptide, and 10 mM Dithiothreitol (DTT).

[3] = tested on: hepatitis C replicon; assay: hepatitis C replicon EC50 assay; format: cell-based, hepatitis C virus (HCV); conditions: Hepatitis C virus
Source text: as §1

[4] = hepatitis C replicon, read-out: EC50

Chain of NS3/NS4 complexes (P27958 1658-1711): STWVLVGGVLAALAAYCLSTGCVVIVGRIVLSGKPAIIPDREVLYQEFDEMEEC
Chain of NS3/NS4 complexes (P27958 1027-1657): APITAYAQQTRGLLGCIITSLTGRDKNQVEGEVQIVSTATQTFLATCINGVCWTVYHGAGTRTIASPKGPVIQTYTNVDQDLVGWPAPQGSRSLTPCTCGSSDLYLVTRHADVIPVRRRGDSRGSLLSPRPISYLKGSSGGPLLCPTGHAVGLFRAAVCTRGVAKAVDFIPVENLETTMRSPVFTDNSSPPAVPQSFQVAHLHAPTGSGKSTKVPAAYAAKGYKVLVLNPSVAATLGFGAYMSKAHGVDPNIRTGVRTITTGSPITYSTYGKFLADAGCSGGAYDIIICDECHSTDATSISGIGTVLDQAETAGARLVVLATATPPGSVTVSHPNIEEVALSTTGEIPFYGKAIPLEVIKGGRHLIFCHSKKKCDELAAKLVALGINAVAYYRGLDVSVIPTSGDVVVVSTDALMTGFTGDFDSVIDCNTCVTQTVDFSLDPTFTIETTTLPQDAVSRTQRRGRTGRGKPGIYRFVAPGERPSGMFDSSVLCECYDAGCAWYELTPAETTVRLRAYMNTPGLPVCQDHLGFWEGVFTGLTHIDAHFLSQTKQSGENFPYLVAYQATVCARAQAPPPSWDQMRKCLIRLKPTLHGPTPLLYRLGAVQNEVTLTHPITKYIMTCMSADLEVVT

Compound	IC50 [2] [nM]	EC50 [3, 4] [nM]	other results
COc1ccc2c(O[C@H]3CN4C(=O)[C@@H](NC(=O)OC(C)(C)C)CCCCCC=C[C@@H]5C[C@@]5(C(=O)NS(=O)(=O)C5(C)CC5)NC(=O)[C@@H]4[C@@H]3C)cc(-c3nc(C(C)C)cs3)nc2c1C	–	–	ring closure, yield of all isomers ([1]; from C=CCCCCC[C@H](NC(=O)OC(C)(C)C)C(=O)N1C[C@H](Oc2cc(-c3nc(C(C)C)cs3)nc3c(C)c(OC)ccc23)[C@@H](C)[C@H]1C(=O)N[C@]1(C(=O)NS(=O)(=O)C2(C)CC2)C[C@H]1C=C, Zhan catalyst, toluene, 5.9 mM, 65.0 °C, 0.5 h): 68%
C=C[C@@H]1C[C@]1(NC(=O)[C@@H]1[C@H](C)[C@@H](Oc2ncc(OC)c3ccc(Cl)cc23)CN1C(=O)[C@@H](NC(=O)OC(C)(C)C)C(C)(C)C)C(=O)NS(=O)(=O)C1(C)CC1 [Compound 211]	< 10	< 10	–
C=C[C@@H]1C[C@]1(NC(=O)[C@@H]1[C@H](C)[C@@H](Oc2cc(-c3nc(C(C)C)cs3)nc3c(C)c(OC)ccc23)CN1C(=O)C(N)C(C)(C)C)C(=O)NS(=O)(=O)C1(C)CC1 (some centres unmarked) [Compound 203]	< 10	10 to 100	–
C=C[C@@H]1C[C@]1(NC(=O)[C@@H]1[C@H](C)[C@@H](Oc2cc(-c3nc(C(C)C)cs3)nc3c(C)c(OC)ccc23)CN1C(=O)[C@@H](Nc1cccc(C(F)(F)F)c1)C(C)(C)C)C(=O)NS(=O)(=O)C1(C)CC1 [Compound 209]	< 10	10 to 100	–
COc1ccc2c(O[C@H]3CN4C(=O)[C@@H](NC(=O)OC(C)(C)C)CCCCCC=C[C@@H]5C[C@@]5(C(=O)NS(=O)(=O)C5(C)CC5)NC(=O)[C@@H]4C3(C)C)cc(-c3nc(C(C)C)cs3)nc2c1C	–	–	ring closure, yield of all isomers ([1]; from C=CCCCCC[C@H](NC(=O)OC(C)(C)C)C(=O)N1C[C@H](Oc2cc(-c3nc(C(C)C)cs3)nc3c(C)c(OC)ccc23)C(C)(C)[C@H]1C(=O)N[C@]1(C(=O)NS(=O)(=O)C2(C)CC2)C[C@H]1C=C, Zhan catalyst, toluene, 5.9 mM, 65.0 °C, 1.33 h): 56%
C=C[C@@H]1C[C@]1(NC(=O)[C@@H]1[C@H](C)[C@@H](Oc2cc(-c3nc(C(C)C)cs3)nc3c(C)c(OC)ccc23)CN1C(=O)[C@@H](N)C(C)(C)C)C(=O)NS(=O)(=O)C1CC1 [Compound 207]	< 10	> 100	–
CC(C)n1c(O[C@H]2CN3C(=O)[C@@H](NC(=O)OC(C)(C)C)CCCCCC=C[C@@H]4C[C@@]4(C(=O)NS(=O)(=O)C4(C)CC4)NC(=O)[C@@H]3[C@@H]2C)nc2c(-c3nc(C4CCCCC4)cs3)cccc21	–	–	ring closure, yield of all isomers ([1]; from C=CCCCCC[C@H](NC(=O)OC(C)(C)C)C(=O)N1C[C@H](Oc2nc3c(-c4nc(C5CCCCC5)cs4)cccc3n2C(C)C)[C@@H](C)[C@H]1C(=O)N[C@]1(C(=O)NS(=O)(=O)C2(C)CC2)C[C@H]1C=C, Zhan catalyst, toluene, 5.16 mM, 65.0 °C, 1.0 h): 53.9%
COc1ccc2c(O[C@H]3CN4C(=O)[C@@H](NC(=O)OC(C)(C)C)CCCCC/C=C\[C@@H]5C[C@@]5(C(=O)NS(=O)(=O)C5CC5)NC(=O)[C@@H]4[C@@H]3C)cc(-c3nc(C(C)C)cs3)nc2c1C [Compound 103]	< 10	< 10	–
C=C[C@@H]1C[C@]1(NC(=O)[C@H]1N(C(=O)C(NC(=O)OC(C)(C)C)C(C)(C)C)C[C@H](Oc2cc(-c3nc(C(C)C)cs3)nc3c(C)c(OC)ccc23)C1(C)C)C(=O)NS(=O)(=O)C1(C)CC1 (some centres unmarked) [Compound 202]	> 100	> 100	–
COc1cnc(O[C@H]2CN3C(=O)[C@@H](NC(=O)OC(C)(C)C)CCCCC/C=C\[C@@H]4C[C@@]4(C(=O)NS(=O)(=O)C4(C)CC4)NC(=O)[C@@H]3[C@@H]2C)c2cc(Cl)ccc12 [Compound 111]	< 10	< 10	–
COc1ccc2c(O[C@H]3CN4C(=O)[C@@H](NC(=O)OC(C)(C)C)CCCCC/C=C\[C@@H]5C[C@@]5(C(=O)NS(=O)(=O)C5(C)CC5)NC(=O)[C@@H]4[C@H]3C)cc(-c3nc(C(C)C)cs3)nc2c1C [Compound 106]	10 to 100	> 100	–
COc1cnc(O[C@H]2CN3C(=O)[C@@H](NC(=O)OC(C)(C)C)CCCCC/C=C\[C@@H]4C[C@@]4(C(=O)O)NC(=O)[C@@H]3[C@@H]2C)c2cc(Cl)ccc12 [Compound 110]	< 10	> 100	–
CCOC(=O)[C@@]12C[C@H]1C=CCCCCC[C@H](NC(=O)OC(C)(C)C)C(=O)N1C[C@H](Oc3nc4c(-c5nc(C6CCCCC6)cs5)cccc4n3C(C)C)[C@@H](C)[C@H]1C(=O)N2	–	–	ring closure, yield of all isomers ([1]; from C=CCCCCC[C@H](NC(=O)OC(C)(C)C)C(=O)N1C[C@H](Oc2nc3c(-c4nc(C5CCCCC5)cs4)cccc3n2C(C)C)[C@@H](C)[C@H]1C(=O)N[C@]1(C(=O)OCC)C[C@H]1C=C, Hoveyda-Grubbs catalyst, 1,2-dichloroethane, 0.96 mM): 83%
CC(C)n1c(O[C@H]2CN3C(=O)[C@@H](NC(=O)OC(C)(C)C)CCCCC/C=C\[C@@H]4C[C@@]4(C(=O)NS(=O)(=O)C4CC4)NC(=O)[C@@H]3[C@@H]2C)nc2c(-c3nc(C4CCCCC4)cs3)cccc21 [Compound 109]	< 10	10 to 100	–
C=C[C@@H]1C[C@]1(NC(=O)[C@@H]1[C@H](C)[C@@H](Oc2cc(-c3nc(C(C)C)cs3)nc3c(C)c(OC)ccc23)CN1C(=O)[C@@H](NC(=O)OC(C)(C)C)C(C)(C)C)C(=O)NS(=O)(=O)C1CC1 [Compound 205]	< 10	< 10	–
COc1ccc2c(O[C@H]3CN4C(=O)[C@@H](NC(=O)OC(C)(C)C)CCCCC/C=C\[C@@H]5C[C@@]5(C(=O)NS(=O)(=O)C5(C)CC5)NC(=O)[C@@H]4C3(C)C)cc(-c3nc(C(C)C)cs3)nc2c1C [Compound 101]	10 to 100	> 100	–
C=C[C@@H]1C[C@]1(NC(=O)[C@@H]1[C@@H](C)[C@@H](Oc2cc(-c3nc(C(C)C)cs3)nc3c(C)c(OC)ccc23)CN1C(=O)[C@@H](N)C(C)(C)C)C(=O)NS(=O)(=O)C1(C)CC1 [Compound 212]	> 100	–	–
COc1ccc2c(O[C@H]3CN4C(=O)[C@@H](N)CCCCC/C=C\[C@@H]5C[C@@]5(C(=O)NS(=O)(=O)C5(C)CC5)NC(=O)[C@@H]4[C@@H]3C)cc(-c3nc(C(C)C)cs3)nc2c1C [Compound 104]	< 10	10 to 100	–
CCOC(=O)[C@@]12C[C@H]1C=CCCCCC[C@H](NC(=O)OC(C)(C)C)C(=O)N1C[C@H](Oc3ncc(OC)c4ccc(Cl)cc34)[C@@H](C)[C@H]1C(=O)N2	–	–	ring closure, yield of all isomers ([1]; from C=CCCCCC[C@H](NC(=O)OC(C)(C)C)C(=O)N1C[C@H](Oc2ncc(OC)c3ccc(Cl)cc23)[C@@H](C)[C@H]1C(=O)N[C@]1(C(=O)OCC)C[C@H]1C=C, Hoveyda-Grubbs catalyst, 1,2-dichloroethane, 0.8 mM, 12.0 h): 92%
COc1ccc2c(O[C@H]3CN4C(=O)[C@@H](NC(=O)OC(C)(C)C)CCCCC/C=C\[C@@H]5C[C@@]5(C(=O)NS(=O)(=O)C5(C)CC5)NC(=O)[C@@H]4[C@@H]3C)cc(-c3nc(C(C)C)cs3)nc2c1C [Compound 102]	< 10	< 10	–
CC(C)n1c(O[C@H]2CN3C(=O)[C@@H](NC(=O)OC(C)(C)C)CCCCC/C=C\[C@@H]4C[C@@]4(C(=O)NS(=O)(=O)C4(C)CC4)NC(=O)[C@@H]3[C@@H]2C)nc2c(-c3nc(C4CCCCC4)cs3)cccc21 [Compound 107]	< 10	10 to 100	–
COc1ccc2c(O[C@H]3CN4C(=O)[C@@H](NC(=O)OC(C)(C)C)CCCCCC=C[C@@H]5C[C@@]5(C(=O)NS(=O)(=O)C5(C)CC5)NC(=O)[C@@H]4[C@H]3C)cc(-c3nc(C(C)C)cs3)nc2c1C	–	–	ring closure, yield of all isomers ([1]; from C=CCCCCC[C@H](NC(=O)OC(C)(C)C)C(=O)N1C[C@H](Oc2cc(-c3nc(C(C)C)cs3)nc3c(C)c(OC)ccc23)[C@H](C)[C@H]1C(=O)N[C@]1(C(=O)NS(=O)(=O)C2(C)CC2)C[C@H]1C=C, Zhan catalyst, 70.0 °C, 0.5 h): 59%
C=C[C@@H]1C[C@]1(NC(=O)[C@@H]1[C@H](C)[C@@H](Oc2cc(-c3nc(C(C)C)cs3)nc3c(C)c(OC)ccc23)CN1C(=O)[C@@H](NC(=O)OC(C)(C)C)C(C)(C)C)C(=O)NS(=O)(=O)C1(C)CC1 [Compound 204]	< 10	< 10	–
CCOC(=O)[C@@]12C[C@H]1C=CCCCCC[C@H](NC(=O)OC(C)(C)C)C(=O)N1C[C@H](Oc3cc(-c4nc(C(C)C)cs4)nc4c(C)c(OC)ccc34)[C@@H](C)[C@H]1C(=O)N2	–	–	ring closure, yield of all isomers ([1]; from C=CCCCCC[C@H](NC(=O)OC(C)(C)C)C(=O)N1C[C@H](Oc2cc(-c3nc(C(C)C)cs3)nc3c(C)c(OC)ccc23)[C@@H](C)[C@H]1C(=O)N[C@]1(C(=O)OCC)C[C@H]1C=C, Zhan catalyst, toluene, 11.67 mM, 70.0 °C, 2.0 h): 75%
C=C[C@@H]1C[C@]1(NC(=O)[C@@H]1[C@@H](C)[C@@H](Oc2cc(-c3nc(C(C)C)cs3)nc3c(C)c(OC)ccc23)CN1C(=O)[C@@H](NC(=O)OC(C)(C)C)C(C)(C)C)C(=O)NS(=O)(=O)C1(C)CC1 [Compound 208]	10 to 100	–	EC50 [3]: > 100 nM
C=C[C@@H]1C[C@]1(NC(=O)[C@@H]1[C@H](C)[C@@H](Oc2ncc(OC)c3ccc(Cl)cc23)CN1C(=O)[C@@H](NC(=O)OC(C)(C)C)C(C)(C)C)C(=O)O [Compound 210]	10 to 100	> 100	–
